Results from patent US20260335388A1, “COMBINATION THERAPIES WITH ONCOLYTIC ADENOVIRUS AND TOPOISOMERASE I INHIBITORS OR PRODRUGS THEREOF” (priority 2022, published 2026).
Like-named read-outs stand apart in the source and are kept apart here.

Experiments:
[1] = test system: Y79 cells and primary retinoblastoma cultures; format: cell-based
E2F-1, p21 and cyclin E1 = format: cell-based
[2] = test system: E1A, E1B, E2F-1, p53 and cPARP; experiment: Expression of viral genes and proteins by treatment sequence, Y79 cells; format: cell-based
Experimental: The expression of viral genes E1A and E1B was studied in 6-well culture plates containing 2×10^6 retinoblastoma cells. […] The experiments were controlled by adding culture medium instead of topotecan. […] Real time quantitative polymerase chain reactions (RT-qPCR) were carried out to analyze gene expression using SYBR technology (Thermo Fisher Scientific).
In all experiments, 6-well culture plates containing 2×10^6 cells were used. […] The experiments were controlled by adding culture medium instead of the second treatment. […] The analyses were expanded to other chemotherapeutic agents including hydroxyurea ([…]), etoposide (2 μM), irinotecan (10 μM) or SN-38 (1 μM).
Near-infrared labeled secondary antibodies (Odyssey CLx, LI-COR Inc. Bad Homburg, Germany) were used for detection.

[3] = test system: RBT-7 intracerebral tumors; experiment: Antitumor activity in CNS-disseminated retinoblastoma; format: in vivo, mouse; details: control 22 days; P of combination vs control 0.0004, topotecan 0.0072, standard of care 0.0040, VCN-01 0.0372; animals dying of toxicity excluded (FIG. 22C)
Excerpt: Antitumor activity in CNS-disseminated retinoblastoma. A model of retinoblastoma dissemination was established in the leptomeninges of the CNS. Anesthetized mice were restrained in a stereotactic apparatus (Stoelting, Wood Dale, IL, USA). Using a mouse brain atlas (Paxinos and Franklin, “The mouse brain in stereotaxic coordinates,” San Diego: Academic Press; 2001), the coordinates of the fourth ventricle were located and the surface of the skull was drilled. Then, […] (RBT-7) in 10 µL matrigel was injected with a dull 22G needle attached to a 50 µL syringe (Hamilton, Bonaduz, Switzerland). One week later, treatments were started with VCN-01 (3×10^9 vp in 20 µL vehicle, intraventricular, day 8), topotecan (0.6 mg/kg, i.p., days 8-12), SoC chemotherapy ([…], 40 mg/kg, i.p., day 8, and etoposide, 6 mg/kg, i.p., days 8-10) or the combination of VCN-01 and chemotherapies. The control group received the vehicle of VCN-01 (intraventricular). Animals achieved experimental endpoints upon deterioration of condition or 20% weight loss. Brains collected at endpoint were embedded in paraffin and stained with hematoxylin and eosin (H&E), human nuclei (MAB4383, 1:200, Millipore), viral protein E1A (ab33183, 1:200, Abcam) and CD45 (leukocyte common antigen; 70257, 1:200, Cell Signaling).

Y79 xenografts = experiment: Ocular survival, Y79 intraocular xenografts (first study); format: in vivo, mouse; details: control 37 days; P vs control: combination 0.0005, topotecan 0.062, standard of care 0.674, VCN-01 1 (FIG. 20A)
Experimental: Antitumor activity in retinoblastoma. […] For ocular tumors, treatments were started at day 8 after inoculation (when tumors were appreciable by fundus examination).
In a first study, one dose of VCN-01 (3×10^8 vp in 2 μL vehicle, intravitreal, day 15), therapeutic schedules of topotecan or standard of care (SoC) retinoblastoma chemotherapy, or their combinations, was administered in the Y79 intraocular xenograft. For topotecan, mice received 0.6 mg/kg i.p. injections on days 8-12 and 29-33. […] 40 mg/kg, on days 8 and 29, and etoposide 6 mg/kg, on days 8-10 and 29-31.

E2F-1 and cyclin E1 = experiment: Immunoblot of E2F-1 and cyclin E1 in neuroblastoma and Ewing sarcoma cells; format: cell-based; details: in vitro, up to 48 h with topotecan (FIG. 24C)
CDKN1A = format: cell-based, human; details: RBT-7 cells pre-infected with VCN-01; topotecan 2 μM (FIG. 17F)
Experimental: To assess the expression of genes involved in the cell cycle, 6-well culture plates containing 2×10^6 retinoblastoma cells were used. VCN-01 was added at 50 MOI for 48 h, followed by the addition of topotecan (2 μM), […] (12.5 μM) or culture medium. The cell pellets were collected 24 h later. The samples were plated in the TaqMan® Array of Human Cyclins & Cell Cycle Regulation (Thermo Fisher Scientific). This array contains 92 assays of cell cycle-associated genes and assays of GAPDH, 18S, HPRT1 and GUSB as endogenous control genes. the threshold cycle (Ct) value ≥35 was established as absence of expression. The mean expression value of the controls was used to normalize gene expression values. The thresholds for upregulation and downregulation were 2^−ΔΔCt≥2.0 and 2^−ΔΔct≤0.5, respectively (Livak and Schmittgen, “Analysis of relative gene expression data using real-time quantitative PCR and the 2 (−Delta Delta C(T)) Method,” Methods 2001; 25(4):402-8).
SYBR primers were CDKN1A (Forward 5′-GGACAGGAGAGGAAGACCATGT-3′ (SEQ ID NO: 15), Reverse 5′-TGGAGTGGTAGAATTCTGTCATGC-3′ (SEQ ID NO: 16) and CDK6 (Forward 5′-CCAGGCAGGCTTTTCATTCA-3′ (SEQ ID NO: 17), Reverse 5′-AGGTCCTGGAAGTATGGGTG-3′ (SEQ ID NO: 18).

[4] = test system: HSJD-RBVS-10 retinoblastoma cells; experiment: cells; format: cell-based; details: Homo sapiens
Y79 tumors = format: in vivo, mouse; details: systemic drug after intratumoral VCN-01 3×10E^9 vp/tumor; 5 or 15 days (FIGS. 2A-B)
[5] = test system: HSJD-ES-033 Ewing sarcoma; experiment: Antitumor activity in Ewing sarcoma PDX HSJD-ES-033; format: in vivo, mouse; details: single treatment (FIG. 24E,G)
Experimental: Patient-derived xenograft (PDX) of Ewing sarcoma (pediatric solid tumor) were implanted subcutaneously into athymic nude mice. Tumor model was HSJD-ES-033. Upon engraftment (tumor volumes ranging 100-500 mm^3), combination treatment in which topotecan was administered systemically (intraperitoneal) at a concentration of 0.6 mg/kg/day, on Days 1, 2, 3, 4 and 5, and a single dose of 3×10^9 vp/tumor VCN-01 was administered intratumorally on Day 1, was compared to either of the treatments alone.
Antitumor activity in extracranial pediatric solid tumors. 5-10 mm^3 fresh fragments of Ewing sarcoma or neuroblastoma PDX were implanted in both flanks of mice. Upon s.c. engraftment (tumor volume 150-200 mm^3), mice received topotecan (0.6 mg/kg, i.p., days 1-5), VCN-01 (3×10^9 vp in 20 µL vehicle, intratumoral, day 1), or the combination. In two additional groups, an alternative topoisomerase 1 inhibitor, irinotecan (10 mg/kg, i.p., on days 1-5) we used in place of topotecan. Upon completion of treatments, tumor volumes were followed until endpoint (1500 mm^3), or until day 80.

[6] = topotecan pretreatment before VCN-01 (FIG. 13E)

SMILES: CC[C@@]1(O)C(=O)OCc2c1cc1n(c2=O)Cc2cc3c(CN(C)C)c(O)ccc3nc2-1 [Topotecan, topotecan]
- transgene expression, virus first ([1]; cells pre-infected with AdTLRGDK (FIG. 18E, FIG. 19A)): increased transgene expression
- viral transduction, drug first ([1]; drug exposure before viral infection (FIG. 18E)): did not enhance viral transduction
- duration of E2F-1, p21 and cyclin E1 increase (E2F-1, p21 and cyclin E1; FIG. 17D): at least 48 h
- protein expression of E2F-1, p21 and cyclin E1 (E2F-1, p21 and cyclin E1; Y79 cells (FIG. 17D)): increased protein expression of E2F-1, p21 and cyclin E1
- onset of E2F-1, p21 and cyclin E1 increase (E2F-1, p21 and cyclin E1; after exposure (FIG. 17D)): 1 h
- E1A expression, VCN-01 first ([2]; topotecan addition after the virus (FIG. 13E,F)): up to two orders of magnitude
- E1B expression, VCN-01 first ([2]; topotecan addition after the virus (FIG. 13G)): up to two orders of magnitude
- E2F-1 level, topotecan first [2, 6]: accumulation of E2F-1
- p53 and cPARP expression, topotecan first [2, 6]: increased expression of proapoptotic proteins p53 and cPARP
- E1A expression (protein and gene), topotecan first ([2]; topotecan pretreatment before VCN-01 (FIG. 13E,F)): low expression of E1A (protein and gene)
- median survival [3]: 28 days
- median ocular survival (Y79 xenografts): 58 days
- expression of E2F-1 and cyclin E1 (E2F-1 and cyclin E1): overexpression of E2F-1 and cyclin E1
- increase in expression of CDKN1A (CDKN1A): 10 fold
- IC50 ([4]; read-out: IC50, Topotecan single agent): 29.6 nM
- IC50 ([4]; read-out: IC50, Topotecan with VCN-01 (10 MOI)): 126 nM
- VCN-01 genome content in tumors (Y79 tumors): increases VCN-01 genome content
- response of xenograft to single treatment [5]: highly resistant
